Laboratory results taken from patent US8198273B2, “Compounds and methods for kinase modulation, and indications therefor” (Plexxikon Inc., priority 2009, dated 2012).

Experiments:
[1] = tested on: A375 melanoma cells (B-Raf V600E); assay: A375 cell growth inhibition (ATPlite); assay type: cell-based; settings: Homo sapiens, A-375, 72 h; A375, 3 days incubation
Outline: (§1)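 Cells plated overnight, then exposed 3 days at 37° C to 8-point 1:3 compound dilutions topping at 10 μM final. Viability read as ATPlite luminescence, proportional to cell number; IC50 from luminescence versus concentration.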

[2] = target: CYP3A4(BQ) (Homo sapiens, UniProt P08684); assay: CYP3A4(BQ) inhibition (fluorescent substrate); assay type: in vitro ADME; settings: read-out: Cyp IC50 3A4(BQ)
Outline: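 Inhibition was followed as loss of fluorescent metabolite from a known substrate, with compound in co-factor mix as a 10-point 1:1 serial dilution (100 mM DMSO stock).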

[3] = target: c-Raf-1 (Homo sapiens, UniProt P04049); assay: c-Raf-1 biochemical kinase inhibition (AlphaScreen, biotin-MEK1 substrate); settings: 100 μM ATP
Outline: (§2)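 Raf kinases phosphorylating biotin-MEK1, reaction started with ATP at 100 μM final. Compounds tested at 8 points by serial dilution from a 0.1 mM DMSO stock.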

[4] = target: B-Raf V600E (Homo sapiens, UniProt P15056, V600E); assay: B-Raf V600E biochemical kinase inhibition (AlphaScreen, biotin-MEK1 substrate); settings: 100 μM ATP
Outline: as §2

[5] = tested on: SKMEL2 melanoma cells (Ras mutation); assay: SKMEL2 cell growth inhibition (ATPlite); assay type: cell-based; settings: Homo sapiens, SK-MEL-2, 72 h; SKMEL2, 3 days incubation
Outline: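 SKMEL2 cells seeded at 2,000 per well overnight, then exposed to an 8-point 1:3 compound titration (top 10 μM final) for 3 days at 37 °C. ATPlite luminescence used as a measure of cell number to derive IC50.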

[6] = tested on: COLO205 colon adenocarcinoma cells (B-Raf V600E); assay: COLO205 cell growth inhibition (ATPlite); assay type: cell-based; settings: Homo sapiens, COLO 205, 72 h; COLO205, 3 days incubation
Outline: as §1

Sequence of B-Raf V600E (P15056 whole entry V600E): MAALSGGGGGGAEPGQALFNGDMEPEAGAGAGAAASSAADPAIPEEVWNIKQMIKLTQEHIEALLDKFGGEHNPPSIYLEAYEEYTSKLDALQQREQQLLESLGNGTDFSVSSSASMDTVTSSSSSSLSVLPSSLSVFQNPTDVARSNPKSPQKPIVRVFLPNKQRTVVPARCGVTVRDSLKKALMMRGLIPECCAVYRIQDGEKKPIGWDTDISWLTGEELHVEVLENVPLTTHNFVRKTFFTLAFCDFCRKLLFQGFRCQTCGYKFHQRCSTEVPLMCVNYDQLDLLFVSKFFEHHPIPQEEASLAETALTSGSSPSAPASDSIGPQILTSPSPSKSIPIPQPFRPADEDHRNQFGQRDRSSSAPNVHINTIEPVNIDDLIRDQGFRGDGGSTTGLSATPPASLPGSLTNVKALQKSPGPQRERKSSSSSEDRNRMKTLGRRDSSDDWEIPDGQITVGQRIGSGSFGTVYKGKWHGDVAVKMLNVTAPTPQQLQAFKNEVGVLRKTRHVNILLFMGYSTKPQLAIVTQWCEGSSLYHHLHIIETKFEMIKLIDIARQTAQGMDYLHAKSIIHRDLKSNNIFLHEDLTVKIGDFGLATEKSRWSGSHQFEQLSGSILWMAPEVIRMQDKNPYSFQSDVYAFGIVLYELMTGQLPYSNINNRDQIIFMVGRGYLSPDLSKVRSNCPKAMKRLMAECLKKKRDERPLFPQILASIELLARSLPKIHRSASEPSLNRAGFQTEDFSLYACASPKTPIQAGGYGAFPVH
Sequence of CYP3A4(BQ) (P08684 whole entry): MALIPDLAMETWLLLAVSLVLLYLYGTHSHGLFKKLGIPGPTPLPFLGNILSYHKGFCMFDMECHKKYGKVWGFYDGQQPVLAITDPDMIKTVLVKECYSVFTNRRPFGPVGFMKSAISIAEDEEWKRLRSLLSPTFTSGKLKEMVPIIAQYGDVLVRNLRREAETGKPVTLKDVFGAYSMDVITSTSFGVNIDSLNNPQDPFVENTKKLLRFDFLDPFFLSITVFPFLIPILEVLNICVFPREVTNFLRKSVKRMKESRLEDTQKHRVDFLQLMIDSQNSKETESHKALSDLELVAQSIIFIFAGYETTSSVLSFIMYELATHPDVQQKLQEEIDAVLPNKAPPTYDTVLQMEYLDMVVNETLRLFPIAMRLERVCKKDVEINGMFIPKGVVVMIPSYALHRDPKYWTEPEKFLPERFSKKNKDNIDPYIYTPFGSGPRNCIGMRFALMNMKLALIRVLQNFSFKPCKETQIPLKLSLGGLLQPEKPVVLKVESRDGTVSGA
Sequence of c-Raf-1 (P04049 whole entry): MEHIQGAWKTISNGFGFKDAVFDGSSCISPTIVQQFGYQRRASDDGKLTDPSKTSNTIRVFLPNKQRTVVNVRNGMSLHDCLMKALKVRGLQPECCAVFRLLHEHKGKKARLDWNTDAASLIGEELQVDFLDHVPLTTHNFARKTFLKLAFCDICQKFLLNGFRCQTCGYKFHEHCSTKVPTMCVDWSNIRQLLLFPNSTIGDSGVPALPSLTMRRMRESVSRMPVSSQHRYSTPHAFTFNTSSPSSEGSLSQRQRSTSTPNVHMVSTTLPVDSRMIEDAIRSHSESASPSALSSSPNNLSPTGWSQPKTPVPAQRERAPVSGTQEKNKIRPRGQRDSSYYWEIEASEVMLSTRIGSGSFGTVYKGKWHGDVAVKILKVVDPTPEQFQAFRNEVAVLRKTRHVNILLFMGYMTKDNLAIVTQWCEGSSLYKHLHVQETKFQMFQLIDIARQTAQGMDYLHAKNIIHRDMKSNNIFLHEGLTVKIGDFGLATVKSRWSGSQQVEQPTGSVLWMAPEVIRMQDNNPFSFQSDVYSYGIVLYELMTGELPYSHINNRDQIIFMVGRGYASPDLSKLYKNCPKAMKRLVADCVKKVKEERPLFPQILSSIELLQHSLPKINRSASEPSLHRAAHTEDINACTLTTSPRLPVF

| SMILES | IC50 [1] [µM] | IC50 [2] [µM] | IC50 [3] [µM] | IC50 [4] [µM] | IC50 [5] [µM] | IC50 [6] [µM] |
| --- | --- | --- | --- | --- | --- | --- |
| CCCS(=O)(=O)Nc1ccc(F)c(C(=O)c2c[nH]c3ncc(-c4ccc(Cl)nc4)cc23)c1F [P-2154, Propane-1-sulfonic acid {3-[5-(6-chloro-pyridin-3-yl)-1H-pyrrolo[2,3-b]pyridine-3-carbonyl]-2,4-difluoro-phenyl}-amide] | < 1 | > 10 | < 0.01 | < 0.1 | > 10 | < 1 |
| CCCS(=O)(=O)Nc1ccc(F)c(C(=O)c2c[nH]c3ncc(-c4ccc(N)nc4)cc23)c1F [P-2214, Propane-1-sulfonic acid {3-[5-(6-amino-pyridin-3-yl)-1H-pyrrolo[2,3-b]pyridine-3-carbonyl]-2,4-difluoro-phenyl}-amide] | < 1 | > 10 | < 0.01 | < 0.01 | > 10 | < 1 |
| CCCS(=O)(=O)Nc1ccc(F)c(C(=O)c2c[nH]c3ncc(-c4ccc(S(=O)(=O)N5CCOCC5)cc4)cc23)c1F [P-2166, Propane-1-sulfonic acid (2,4-difluoro-3-{5-[4-(morpholine-4-sulfonyl)-phenyl]-1H-pyrrolo[2,3-b]pyridine-3-carbonyl}-phenyl)-amide] | < 1 | > 10 | < 0.01 | < 0.01 | < 5 | < 0.1 |
| CCCS(=O)(=O)Nc1ccc(F)c(C(=O)c2c[nH]c3ncc(-c4ccc(NC(C)=O)nc4)cc23)c1F [P-2193, N-(5-{3-[2,6-Difluoro-3-(propane-1-sulfonylamino)-benzoyl]-1H-pyrrolo[2,3-b]pyridin-5-yl}-pyridin-2-yl)-acetamide] | < 1 | > 10 | < 0.01 | < 0.01 | > 10 | < 1 |
| COc1ccnc2[nH]cc(C(=O)c3c(F)ccc(NS(=O)(=O)c4cccnc4)c3F)c12 [P-2073, Pyridine-3-sulfonic acid [2,4-difluoro-3-(4-methoxy-1H-pyrrolo[2,3-b]pyridine-3-carbonyl)-phenyl]-amide] | < 10 | < 5 | < 0.01 | < 0.1 | > 10 | < 10 |
| CCCS(=O)(=O)Nc1cccc(C(=O)c2c[nH]c3ncc(-c4cnc(OC)nc4)cc23)c1F [P-2407, Propane-1-sulfonic acid {2-fluoro-3-[5-(2-methoxy-pyrimidin-5-yl)-1H-pyrrolo[2,3-b]pyridine-3-carbonyl]-phenyl}-amide] | < 1 | > 10 | < 0.01 | < 0.01 | < 20 | < 1 |
| CCCS(=O)(=O)Nc1ccc(F)c(C(=O)c2c[nH]c3ncc(-c4cnc(N(C)C)nc4)cc23)c1F [P-2196, Propane-1-sulfonic acid {3-[5-(2-dimethylamino-pyrimidin-5-yl)-1H-pyrrolo[2,3-b]pyridine-3-carbonyl]-2,4-difluoro-phenyl}-amide] | < 1 | > 10 | < 0.01 | < 0.01 | > 10 | < 1 |
| CCCS(=O)(=O)Nc1ccc(F)c(C(=O)c2c[nH]c3ncc(-c4cncnc4)cc23)c1F [P-2162, Propane-1-sulfonic acid [2,4-difluoro-3-(5-pyrimidin-5-yl-1H-pyrrolo[2,3-b]pyridine-3-carbonyl)-phenyl]-amide] | < 1 | < 5 | < 0.01 | < 0.01 | < 10 | < 1 |
| CCCS(=O)(=O)Nc1ccc(F)c(C(=O)c2c[nH]c3ncc(-c4cn[nH]c4)cc23)c1F [P-2174, Propane-1-sulfonic acid {2,4-difluoro-3-[5-(1H-pyrazol-4-yl)-1H-pyrrolo[2,3-b]pyridine-3-carbonyl]-phenyl}-amide] | < 1 | < 5 | < 0.01 | < 0.01 | < 10 | < 1 |

Next, values leading:

| IC50 [1] [µM] | IC50 [2] [µM] | IC50 [3] [µM] | IC50 [4] [µM] | IC50 [5] [µM] | IC50 [6] [µM] | SMILES |
| --- | --- | --- | --- | --- | --- | --- |
| < 5 | < 5 | < 0.01 | < 0.01 | > 10 | < 5 | N#Cc1cnc2[nH]cc(C(=O)c3c(F)ccc(NS(=O)(=O)c4cccnc4)c3F)c2c1 [P-2072, Pyridine-3-sulfonic acid [3-(5-cyano-1H-pyrrolo[2,3-b]pyridine-3-carbonyl)-2,4-difluoro-phenyl]-amide] |
| < 5 | > 10 | < 0.1 | < 0.1 | > 10 | < 5 | COc1ccnc2[nH]cc(C(=O)c3c(F)ccc(NS(=O)(=O)c4c(F)cccc4F)c3F)c12 [P-2031, N-[2,4-Difluoro-3-(4-methoxy-1H-pyrrolo[2,3-b]pyridine-3-carbonyl)-phenyl]-2,6-difluoro-benzenesulfonamide] |
| < 1 | > 10 | < 0.01 | < 0.01 | > 10 | < 1 | CCCS(=O)(=O)Nc1ccc(F)c(C(=O)c2c[nH]c3ncc(-c4ccc(C)nc4)cc23)c1F [P-2213, Propane-1-sulfonic acid {2,4-difluoro-3-[5-(6-methyl-pyridin-3-yl)-1H-pyrrolo[2,3-b]pyridine-3-carbonyl]-phenyl}-amide] |
| < 5 | > 10 | < 0.01 | < 0.01 | > 10 | < 5 | N#Cc1cnc2[nH]cc(C(=O)c3c(F)ccc(NS(=O)(=O)c4c(F)cccc4F)c3F)c2c1 [P-2029, N-[3-(5-Cyano-1H-pyrrolo[2,3-b]pyridine-3-carbonyl)-2,4-difluoro-phenyl]-2,6-difluoro-benzenesulfonamide] |
| < 1 | > 10 | < 0.01 | < 0.01 | > 10 | < 1 | N#Cc1cnc2[nH]cc(C(=O)c3cccc(NS(=O)(=O)c4cc(F)ccc4F)c3F)c2c1 [P-2052, N-[3-(5-Cyano-1H-pyrrolo[2,3-b]pyridine-3-carbonyl)-2-fluoro-phenyl]-2,5-difluoro-benzenesulfonamide] |
| < 1 | > 10 | < 0.01 | < 0.01 | > 10 | < 1 | N#Cc1cnc2[nH]cc(C(=O)c3c(F)ccc(NS(=O)(=O)c4ccccc4)c3F)c2c1 [P-2046, N-[3-(5-Cyano-1H-pyrrolo[2,3-b]pyridine-3-carbonyl)-2,4-difluoro-phenyl]-benzenesulfonamide] |
| < 5 | > 10 | < 0.01 | < 0.01 | > 10 | < 1 | N#Cc1cnc2[nH]cc(C(=O)c3cccc(NS(=O)(=O)c4cccc(F)c4)c3F)c2c1 [P-2053, N-[3-(5-Cyano-1H-pyrrolo[2,3-b]pyridine-3-carbonyl)-2-fluoro-phenyl]-3-fluoro-benzenesulfonamide] |
